Laboratory results taken from patent US20110086759A1, “CHEMICAL COMPOUNDS” (SYNGENTA CROP PROTECTION, INC., priority 2007, published 2011).

How the values were obtained:
Type in all cases: in vivo
[1] = test system: Alopecurus myosuroides (ALOMY); experiment: Pre-emergence biological efficacy, glasshouse pot test; settings: 312 h
Procedure, shortened: (§1)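 Visual phytotoxicity (0 no damage, 100 total damage) assessed 13 d after treatment. Soil-sown pots sprayed one day post-sowing; dose 1000 or 250 g/ha; formulation in acetone/water 50:50, 0.5% Tween 20.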

[2] = test system: Amaranthus retoflexus (AMARE); experiment: as above; settings: Amaranthus retroflexus, 312 h
Procedure, shortened: as §1

[3] = test system: Echinochloa crus-galli (ECHCG); experiment: as above; settings: 312 h
Procedure, shortened: as §1

[4] = test system: Ipomea hederaceae (IPOHE); experiment: as above; settings: Ipomoea hederacea, 312 h
Procedure, shortened: as §1

Setaria faberi (SETFA) [5] = experiment: as above; settings: 312 h
Procedure, shortened: as §1

Solanum nigrum (SOLNI) [6] = experiment: as above; settings: 312 h
Procedure, shortened: as §1

[7] = test system: Alopecurus myosuroides (ALOMY); experiment: Post-emergence biological efficacy, glasshouse pot test; settings: 312 h
Procedure, shortened: (§2)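 Pot-grown weeds were sprayed 8 days after sowing with test compound in acetone/water (50:50) with 0.5% Tween 20 at 1000 or 250 g/ha. Glasshouse at 24/16° C day/night, 14 h light, 65% humidity. Damage scored 0-100 (100 = total damage) after 13 days.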

[8] = test system: Amaranthus retoflexus (AMARE); experiment: as above; settings: Amaranthus retroflexus, 312 h
Procedure, shortened: as §2

[9] = test system: Echinochloa crus-galli (ECHCG); experiment: as above; settings: 312 h
Procedure, shortened: as §2

[10] = test system: Ipomea hederaceae (IPOHE); experiment: as above; settings: Ipomoea hederacea, 312 h
Procedure, shortened: as §2

Setaria faberi (SETFA) [11] = experiment: as above; settings: 312 h
Procedure, shortened: as §2

Solanum nigrum (SOLNI) [12] = experiment: as above; settings: 312 h
Procedure, shortened: as §2

[13] = pre-emergence, 1,000 g/ha, evaluated after 13 days (100=total damage; 0=no damage), read-out: Percentage damage ALOMY
[14] = pre-emergence, 1,000 g/ha, evaluated after 13 days (100=total damage; 0=no damage), read-out: Percentage damage AMARE
[15] = pre-emergence, 1,000 g/ha, evaluated after 13 days (100=total damage; 0=no damage), read-out: Percentage damage ECHCG
[16] = pre-emergence, 1,000 g/ha, evaluated after 13 days (100=total damage; 0=no damage), read-out: Percentage damage IPOHE
[17] = pre-emergence, 1,000 g/ha, evaluated after 13 days (100=total damage; 0=no damage), read-out: Percentage damage SETFA
[18] = pre-emergence, 1,000 g/ha, evaluated after 13 days (100=total damage; 0=no damage), read-out: Percentage damage SOLNI
[19] = post-emergence, 1,000 g/ha, evaluated after 13 days (100=total damage; 0=no damage), read-out: Percentage damage caused to weed species, ALOMY
[20] = post-emergence, 1,000 g/ha, evaluated after 13 days (100=total damage; 0=no damage), read-out: Percentage damage caused to weed species, AMARE
[21] = post-emergence, 1,000 g/ha, evaluated after 13 days (100=total damage; 0=no damage), read-out: Percentage damage caused to weed species, ECHCG
[22] = post-emergence, 1,000 g/ha, evaluated after 13 days (100=total damage; 0=no damage), read-out: Percentage damage caused to weed species, IPOHE
[23] = post-emergence, 1,000 g/ha, evaluated after 13 days (100=total damage; 0=no damage), read-out: Percentage damage caused to weed species, SETFA
[24] = post-emergence, 1,000 g/ha, evaluated after 13 days (100=total damage; 0=no damage), read-out: Percentage damage caused to weed species, SOLNI

Compound	pest or weed control at 1000 g/ha [1, 13]	pest or weed control at 1000 g/ha [2, 14]	pest or weed control at 1000 g/ha [3, 15]	pest or weed control at 1000 g/ha [4, 16]	pest or weed control at 1000 g/ha (Setaria faberi (SETFA) [5]; [17])	pest or weed control at 1000 g/ha (Solanum nigrum (SOLNI) [6]; [18])	pest or weed control at 1000 g/ha [7, 19]	pest or weed control at 1000 g/ha [8, 20]	pest or weed control at 1000 g/ha [9, 21]	pest or weed control at 1000 g/ha [10, 22]	pest or weed control at 1000 g/ha (Setaria faberi (SETFA) [11]; [23])	pest or weed control at 1000 g/ha (Solanum nigrum (SOLNI) [12]; [24])	other results
COC(=O)c1nc(-c2ccc(F)c(Cl)c2)nc(NCc2ccco2)c1Cl [Compound 245-48, 5-Chloro-2-(3-chloro-4-fluorophenyl)-4-(furan-2-yl-methyl-amino)-6-methoxy-carbonylpyrimidine]	–	–	–	–	–	–	–	–	–	–	–	–	pest or weed control at 1000 g/ha ([1]; pre-emergence, rate 1,000 g/ha, evaluated after 13 days (100=total damage to plant; 0=no damage), read-out: Percentage damage caused to weed species, ALOMY): 30%; pest or weed control at 1000 g/ha ([2]; pre-emergence, rate 1,000 g/ha, evaluated after 13 days (100=total damage to plant; 0=no damage), read-out: Percentage damage caused to weed species, AMARE): 80%; pest or weed control at 1000 g/ha ([3]; pre-emergence, rate 1,000 g/ha, evaluated after 13 days (100=total damage to plant; 0=no damage), read-out: Percentage damage caused to weed species, ECHCG): 30%; pest or weed control at 1000 g/ha ([4]; pre-emergence, rate 1,000 g/ha, evaluated after 13 days (100=total damage to plant; 0=no damage), read-out: Percentage damage caused to weed species, IPOHE): 20%; pest or weed control at 1000 g/ha (Setaria faberi (SETFA) [5]; pre-emergence, rate 1,000 g/ha, evaluated after 13 days (100=total damage to plant; 0=no damage), read-out: Percentage damage caused to weed species, SETFA): 30%; pest or weed control at 1000 g/ha (Solanum nigrum (SOLNI) [6]; pre-emergence, rate 1,000 g/ha, evaluated after 13 days (100=total damage to plant; 0=no damage), read-out: Percentage damage caused to weed species, SOLNI): 10%; pest or weed control at 1000 g/ha ([7]; Rate 1,000 g/ha, post-emergence spray, evaluated after 13 days (100=total damage to plant; 0=no damage to plant), read-out: Percentage damage caused to weed species, post-emergence, ALOMY): 20%; pest or weed control at 1000 g/ha ([8]; Rate 1,000 g/ha, post-emergence spray, evaluated after 13 days (100=total damage to plant; 0=no damage to plant), read-out: Percentage damage caused to weed species, post-emergence, AMARE): 100%; pest or weed control at 1000 g/ha ([9]; Rate 1,000 g/ha, post-emergence spray, evaluated after 13 days (100=total damage to plant; 0=no damage to plant), read-out: Percentage damage caused to weed species, post-emergence, ECHCG): 40%; pest or weed control at 1000 g/ha ([10]; Rate 1,000 g/ha, post-emergence spray, evaluated after 13 days (100=total damage to plant; 0=no damage to plant), read-out: Percentage damage caused to weed species, post-emergence, IPOHE): 60%; pest or weed control at 1000 g/ha (Setaria faberi (SETFA) [11]; Rate 1,000 g/ha, post-emergence spray, evaluated after 13 days (100=total damage to plant; 0=no damage to plant), read-out: Percentage damage caused to weed species, post-emergence, SETFA): 70%; pest or weed control at 1000 g/ha (Solanum nigrum (SOLNI) [12]; Rate 1,000 g/ha, post-emergence spray, evaluated after 13 days (100=total damage to plant; 0=no damage to plant), read-out: Percentage damage caused to weed species, post-emergence, SOLNI): 90%
COC(=O)c1nc(C2CC2)nc(NC2(CCc3ccccc3)CC2)c1Cl [Compound 4-17, 5-Chloro-2-cyclopropyl-6-methoxycarbonyl-4-[1-(2-phenylethyl)-cyclopropylamino]-pyrimidine]	10%	50%	20%	70%	0%	10%	20%	100%	30%	60%	60%	70%	–
COC(=O)c1nc(C2CC2)nc(NC2(/C=C\c3ccccc3)CC2)c1Cl [4-19 (Z), 5-Chloro-2-cyclopropyl-6-methoxycarbonyl-[(Z)-1-(2-phenylethenyl)-cyclopropylamino]-pyrimidine]	20%	90%	20%	90%	0%	40%	10%	100%	30%	100%	60%	90%	–
CCCC(F)(CNc1nc(C2CC2)nc(C(=O)OC)c1Cl)c1ccc(Cl)cc1Cl (stereo not drawn) [Compound 4-244, 5-Chloro-2-cyclopropyl-4-[2-(2,4-dichloro-phenyl)-2-fluoro-pentylamino]-6-methoxycarbonyl-pyrimidine]	0%	30%	0%	0%	0%	0%	0%	20%	0%	50%	0%	20%	–
